{
  "source": "patent US8138196B2",
  "about": "“Antifungal wallboards and building materials and methods for the production thereof” (Syngenta Crop Protection, Inc., priority 2005, dated 2012)",
  "type_in_all_cases": "cell-based",
  "key": {"[1]": {"system": "Aspergillus versicolor (DSM 1943)", "assay": "Example 4 liquid culture assay on 24 and 48 well plates, 3 way mixtures", "details": "test 006-2005, A. versicolor", "text": "(§1) For test 006-2005: Alternaria tenuissima (DSM 63360), Penicillium chrysogenum (DSM 895), Cladosporium cladosporoides (DSM62121), Aspergillus niger (DSM 63263), Aspergillus versicolor (DSM 1943) and Aureobasidium pullulans (ATCC 15233) were separately cultivated on PDA media to […] sporulation. Spore suspensions were produced for each fungus. Spore concentrations of approx. 100,000 spores/ml were used.\n(§2) Test method used: liquid culture assay on 24 and 48 well plates respectively.\n(§3) For testing of the 3 way mixtures each of the formulated fungicide (100 ul) was filled into the 24 and 48 well plates respectively. Afterwards 700 ul of 0.3% AE media was added to the plate. The spore suspension of the specific fungi was added to this media in advance containing approx. 100,000 spores/ml. For testing the solo compounds the equivalent of distilled water was added instead of the formulated fungicide volume of the mixing partners. The plates were then sealed and incubated at 24° C.\n(§4) Dependent on the growth properties of each organisms, the evaluation was done after 3 to 6 days, when the surface of the check well was covered with mycelium. The evaluation was performed by assessing the growth of the fungi related to the check growth. The results are expressed as % activity relative to the check (values of 0-100% growth). Afterwards the results were converted in % growth inhibition.\n(§5) For the mixtures of different fungicides the synergism was calculated based on the Colby equation, which is described above."}, "[2]": {"system": "Alternaria tenuissima (DSM 63360)", "assay": "Example 4 liquid culture assay on 24 and 48 well plates, 3 way mixtures", "details": "A. tenuissima", "text": "as §1\n[…] Spore suspensions were produced for each fungus. Spore concentrations of approx. 100,000 spores/ml were used.\nas §2, §3, §4, §5"}, "[3]": {"system": "Aureobasidium pullulans (ATCC 15233)", "assay": "Example 3 liquid culture assay on 24 well plates, solo and 2-way mixtures", "text": "as §1, with “Alternaria” for “For test 006-2005: Alternaria”, “Stachybotrys chartarum (DSM2144),” for “Cladosporium cladosporoides (DSM62121),”, “fungi.” for “fungus.”, “100.000” for “100,000”\n(§6) Test method used: liquid culture assay on 24 well plates.\n(§7) For solo (i.e. single) ai testing the formulated fungicide (100 ul) was filled into the 24 well plates and 100 ul distilled water was added. Afterwards 800 ul of 0.3% AE media was added to the plate. The spore suspension of the specific fungi was added to this media in advance containing approx. 100,000 spores/ml. The 24 well plates were sealed and incubated at 24° C.\nas §4, with “in % O growth inhibition.” for “in % growth inhibition.”\n(§8) For synergism testing of the 2-way mixtures 100 ul of each fungicide were filled into 24 well plates and 800 ul of 0.3% AE media containing the spore suspension was added. Different ratios of the 2 fungicide rates were tested at the same time.\n(§9) For the mixtures of different fungicides the synergism was calculated based on the Colby equation, which is described below: […]\n(§10) The fungicidal action to be expected, We, for a given combination of two fungicides can be calculated as follows (see COLBY, S. R. “Calculating synergistic and antagonistic response of herbicide combinations”. Weeds 15, pages 20-22; 1967): We=X+[Y×(100−X)/100] wherein: • X=% activity in the case of treatment with the compound of formula I at rate x, in comparison with untreated control (=0%). • Y=% activity in the case of treatment with a compound of formula II at rate y, in comparison with untreated control. • We=expected activity (% activity in comparison with untreated control) after treatment with the compound of formula I and a compound of formula II at a rate of x+y kg of active ingredient.\n(§11) If the activity actually observed is greater than the expected value We (factor observed activity/expected activity >1.2), there is a synergistic effect."}, "[4]": {"system": "Stachybotrys chartarum (DSM2144)", "assay": "Example 3 liquid culture assay on 24 well plates, solo and 2-way mixtures", "details": "test 006-2005; rate (AZO) 0.8 mg ai/l", "text": "as §1, with “Alternaria” for “For test 006-2005: Alternaria”, “Stachybotrys chartarum (DSM2144),” for “Cladosporium cladosporoides (DSM62121),”, “fungi.” for “fungus.”, “100.000” for “100,000”\nas §6, §7\nas §4, with “in % O growth inhibition.” for “in % growth inhibition.”\nas §8, §9, §10, §11"}},
  "data": [
    {"molecule": "CO/C=C(/C(=O)OC)c1ccccc1Oc1cc(Oc2ccccc2C#N)ncn1", "note": "[Azoxystrobin]", "values": [
      {"measurement": "inh % (AZO alone)", "setting": "[1]; AZO 0.05 mg ai/l", "result": 10, "unit": "%"},
      {"measurement": "inh % (AZO alone)", "setting": "[1]; AZO 0.2 mg ai/l", "result": 30, "unit": "%"},
      {"measurement": "inh % (AZO alone)", "setting": "[1]; AZO 0.8 mg ai/l", "result": 30, "unit": "%"},
      {"measurement": "inh % (AZO alone)", "setting": "[1]; AZO 1.6 mg ai/l", "result": 30, "unit": "%"},
      {"measurement": "inh % (AZO alone)", "setting": "[1]; AZO 3.12 mg ai/l", "result": 30, "unit": "%"},
      {"measurement": "inh % (AZO alone)", "setting": "[1]; AZO 12.5 mg ai/l", "result": 30, "unit": "%"},
      {"measurement": "inh % (AZO alone)", "setting": "[1]; AZO 50 mg ai/l", "result": 30, "unit": "%"},
      {"measurement": "inh % (AZO alone)", "setting": "[1]; AZO 100 mg ai/l", "result": 30, "unit": "%"},
      {"measurement": "inh % (AZO alone)", "setting": "[2]; test 006-2005, AZO 0.05 mg ai/l", "result": 10, "unit": "%"},
      {"measurement": "inh % (AZO alone)", "setting": "[2]; test 006-2005, AZO 0.2 mg ai/l", "result": 10, "unit": "%"},
      {"measurement": "inh % (AZO alone)", "setting": "[2]; test 006-2005, AZO 0.8 mg ai/l", "result": 10, "unit": "%"},
      {"measurement": "inh % (AZO alone)", "setting": "[2]; test 006-2005, AZO 1.6 mg ai/l", "result": 10, "unit": "%"},
      {"measurement": "inh % (AZO alone)", "setting": "[2]; test 006-2005, AZO 3.12 mg ai/l", "result": 10, "unit": "%"},
      {"measurement": "inh % (AZO alone)", "setting": "[2]; test 006-2005, AZO 12.5 mg ai/l", "result": 10, "unit": "%"},
      {"measurement": "inh % (AZO alone)", "setting": "[2]; test 006-2005, AZO 50 mg ai/l", "result": 10, "unit": "%"},
      {"measurement": "inh % (AZO alone)", "setting": "[2]; test 006-2005, AZO 100 mg ai/l", "result": 10, "unit": "%"},
      {"measurement": "inh % (AZO alone)", "setting": "[2]; test 015-2005, AZO 0.05 mg ai/l", "result": 10, "unit": "%"},
      {"measurement": "inh % (AZO alone)", "setting": "[2]; test 015-2005, AZO 0.2 mg ai/l", "result": 10, "unit": "%"},
      {"measurement": "inh % (AZO alone)", "setting": "[3]; test 006-2005, rate (AZO) 0.05 mg ai/l", "result": 0, "unit": "%"},
      {"measurement": "inh % (AZO alone)", "setting": "[3]; test 006-2005, rate (AZO) 0.2 mg ai/l", "result": 10, "unit": "%"},
      {"measurement": "inh % (AZO alone)", "setting": "[3]; test 006-2005, rate (AZO) 0.8 mg ai/l", "result": 10, "unit": "%"},
      {"measurement": "inh % (AZO alone)", "setting": "[3]; test 006-2005, rate (AZO) 1.6 mg ai/l", "result": 10, "unit": "%"},
      {"measurement": "inh % (AZO alone)", "setting": "[3]; test 006-2005, rate (AZO) 3.12 mg ai/l", "result": 10, "unit": "%"},
      {"measurement": "inh % (AZO alone)", "setting": "[3]; test 006-2005, rate (AZO) 12.5 mg ai/l", "result": 10, "unit": "%"},
      {"measurement": "inh % (AZO alone)", "setting": "[3]; test 015-2005, rate (AZO) 12.5 mg ai/l", "result": 0, "unit": "%"},
      {"measurement": "inh % (AZO alone)", "setting": "[3]; test 015-2005, rate (AZO) 25 mg ai/l", "result": 0, "unit": "%"},
      {"measurement": "inh % (AZO alone)", "setting": "[3]; test 015-2005, rate (AZO) 50 mg ai/l", "result": 0, "unit": "%"},
      {"measurement": "inh % (AZO alone)", "setting": "[3]; test 015-2005, rate (AZO) 100 mg ai/l", "result": 0, "unit": "%"},
      {"measurement": "inh % (AZO alone)", "setting": "[4]", "result": 10, "unit": "%"}
    ]}
  ]
}
